The values below come from paper PMC8541314, “Production and Purification of Two Bioactive Antimicrobial Peptides Using a Two-Step Approach Involving an Elastin-Like Fusion Tag” (Pharmaceuticals, 2021).

A value given as a limit tells only on which side of the number the result lay.

One series has as its system S. aureus ATCC6538. In words: Broth microdilution MIC / growth inhibition. It is filed as cell-based, Staphylococcus aureus. Conditions: 18 h at 37 °C; for MIC: S. aureus ATCC6538, broth microdilution in MHB, OD600nm, at least three independent replicates, range 0.39–100 mg/L; for growth inhibition (complete inhibition): S. aureus, within tested range 0.39–100 mg/L. How it is done: (§1) The antibacterial activity of free CM4 and Synoeca was evaluated by determination of the minimum inhibitory concentration (MIC) against Gram-negative (E. coli HB101, P. aeruginosa ATCC10145, B. cenocepacia IST439, B. cenocepacia IST4113, and K. pneumoniae) and Gram-positive (S. aureus ATCC6538 and S. epidermidis) bacteria. The AMPs were incubated with bacterial suspensions and assessed for bacterial growth, with the MIC defined as the lowest concentration of AMPs that inhibited the visible growth of bacteria (Figure 5).
(§2) E. coli XL1-Blue and BL21(DE3) strains were used for the cloning and production steps, respectively. E. coli HB101, S. aureus ATCC6538, P. aeruginosa ATCC10145, B. cenocepacia IST439, B. cenocepacia IST4113, and clinical isolates of K. pneumoniae and S. epidermidis were used in the broth microdilution MIC assays. The clonal variants of B. cenocepacia were isolated, with a 3-year difference, from the same cystic fibrosis (CF) patient.
(§3) The antibacterial activity of the isolated AMPs was assessed via broth microdilution method to determine the MIC against clinically relevant Gram-negative and Gram-positive bacteria—E. coli HB101, P. aeruginosa ATCC10145, B. cenocepacia IST439, B. cenocepacia IST4113, K. pneumoniae isolate, S. aureus ATCC6538 and S. epidermidis isolate—following the European Committee on Antimicrobial Susceptibility Testing (EUCAST) and the Clinical Laboratory Standards Institute (CLSI) guidelines. A detailed description of the method is provided by Wiegand et al.. Briefly, stock solutions of 2 mg/mL of AMP in sterile mQ water were used for the preparation of two-fold serial dilutions in MHB, to obtain final testing concentrations within the range of 0.39–100 mg/L (200 mg/L for B. cenocepacia strains). For the MIC assays, 50 μL of protein solution and 50 μL of bacterial suspensions in MHB (1 × 10^6 CFUs/mL) were mixed in 96-well plates (Nunc™ Edge 2.0 96-well plates, Thermo Scientific™, Waltham, Massachusetts, EUA) and incubated for 18 h at 37 °C. Growth inhibition was assessed by measuring optical density at 600 nm (OD600nm). The MIC was determined as the lowest concentration of antimicrobial peptide that inhibited the visible growth of the testing bacteria. At least three independent replicates were performed for each peptide and bacterial strain. Data were analysed by GraphPad Prism 6 Software (GraphPad Software, Inc., La Jolla, CA, USA).

Another series concerns P. aeruginosa ATCC10145. In words: Broth microdilution MIC / growth inhibition. It counts as cell-based, Pseudomonas aeruginosa. The following applies: 18 h at 37 °C, OD600nm; for MIC: P. aeruginosa ATCC10145, broth microdilution in MHB, at least three independent replicates, range 0.39–100 mg/L; for mean value of growth inhibition: P. aeruginosa. The procedure:
as §1, §2, §3

The next series concerns S. epidermidis isolate. In words: Broth microdilution MIC / growth inhibition. It is filed as cell-based, Staphylococcus epidermidis. The following applies: 18 h at 37 °C; for MIC: S. epidermidis clinical isolate, broth microdilution in MHB, OD600nm, at least three independent replicates, range 0.39–100 mg/L; for growth inhibition (complete inhibition): S. epidermidis, within tested range 0.39–100 mg/L. The procedure:
as §1, §2, §3

In a further series the test system is K. pneumoniae isolate. Nature of the series: Broth microdilution MIC / growth inhibition. Conditions: 18 h at 37 °C, OD600nm; for MIC: K. pneumoniae clinical isolate, broth microdilution in MHB, at least three independent replicates, range 0.39–100 mg/L. It is filed as cell-based, Klebsiella pneumoniae. How it is done: as §1, §2
as §3, with “For the MIC assays, 50 μL of protein solution and 50 μL of bacterial suspensions in MHB (1 × 10^6 CFUs/mL) were mixed in 96-well plates (Nunc™ Edge 2.0 96-well plates, Thermo Scientific™, Waltham, Massachusetts, EUA) and incubated for 18 h at 37 °C.” left out, “At least three independent replicates were performed for each peptide and bacterial strain.” left out

Another series has as its system E. coli HB101. Nature of the series: Broth microdilution MIC / growth inhibition. It counts as cell-based, Escherichia coli. Conditions: 18 h at 37 °C; for MIC: E. coli HB101, broth microdilution in MHB, OD600nm, at least three independent replicates, range 0.39–100 mg/L; for growth inhibition (complete inhibition): E. coli, within tested range 0.39–100 mg/L. The procedure: as §1, §2, §3

The test system of a further series is B. cenocepacia IST439. In words: Broth microdilution MIC / growth inhibition. It is filed as cell-based, Burkholderia cenocepacia. Conditions: 18 h at 37 °C, OD600nm; for MIC: broth microdilution in MHB, at least three independent replicates, range up to 200 mg/L. The procedure: as §1, §2, §3
For the next series, the system named is B. cenocepacia IST4113. Nature of the series: Broth microdilution MIC / growth inhibition. It counts as cell-based, Burkholderia cenocepacia. Conditions: 18 h at 37 °C, OD600nm; for MIC: broth microdilution in MHB, at least three independent replicates, range up to 200 mg/L. The procedure:
as §1, §2, §3

Another series concerns mammalian cells. Conditions: cited from earlier work. The source says:
In this work, we report the use of A200 as a thermoresponsive protein tag for the production and purification of the following two AMPs, using Escherichia coli as a cell factory: ABP-CM4 (CM4), a 35 amino acid antimicrobial peptide, isolated from the haemolymph of the silkworm Bombyx mori; and Synoeca-MP (Synoeca), a 14 amino acid antimicrobial peptide, isolated from the venom of the Synoeca surinama wasp. CM4 is a member of the cecropin family of peptides, with antibacterial, antifungal, and antitumor activities, while showing no toxicity towards mammalian cells [[26],[28],[29], ...

Consider ABP-CM4, for which the MIC in the series with S. aureus ATCC6538 is 3.13 µg/mL; against P. aeruginosa ATCC10145 it was more than 100.00 µg/mL; in the series on S. epidermidis isolate, 12.50 µg/mL; in the series with K. pneumoniae isolate it was 50.00 µg/mL; with E. coli HB101, 50.00 µg/mL; against B. cenocepacia IST439 it was approximately 200.00 µg/mL. In addition, the MIC against B. cenocepacia IST4113 is 200.00 µg/mL. The “growth inhibition (complete inhibition)” value in the series with S. aureus ATCC6538, with S. epidermidis isolate and in the series on E. coli HB101 was 100% throughout. The “mean value of growth inhibition” value in the series on P. aeruginosa ATCC10145 (peptide 100.00 mg/L) is on record as 25%; in the series on B. cenocepacia IST4113 (peptide 200.00 mg/L), 100%. Further, the growth inhibition result in the series on B. cenocepacia IST439 (peptide 100.00 mg/L) and in the series on B. cenocepacia IST4113 (peptide 100.00 mg/L) was “around 75%” in each case. Besides, in the series on mammalian cells (mammalian cells), the “toxicity towards mammalian cells” value was “no toxicity”.

On to Synoeca-MP, for which the MIC against S. aureus ATCC6538 is 1.56 µg/mL; against P. aeruginosa ATCC10145, more than 100.00 µg/mL; against S. epidermidis isolate it was 6.25 µg/mL; against K. pneumoniae isolate, more than 100.00 µg/mL; in the series on E. coli HB101, 25.00 µg/mL; against B. cenocepacia IST439, 12.50 µg/mL. In the series on B. cenocepacia IST4113, this substance displayed an MIC of 12.50 µg/mL. In addition, the “growth inhibition (complete inhibition)” value in the series on S. aureus ATCC6538, in the series with S. epidermidis isolate and with E. coli HB101 was 100% each time. Also, the “mean value of growth inhibition” value in the series on P. aeruginosa ATCC10145 (within tested range 0.39–100 mg/L) was “lower than 5%”; in the series with K. pneumoniae isolate (K. pneumoniae, within tested range 0.39–100 mg/L), “lower than 5%”. The “cytotoxicity against mammalian cell lines” value with mammalian cells (mammalian cell lines) is “no significant cytotoxicity”.
